Data published in patent US12662451B2, “Chemical compounds and uses thereof” (GLAXOSMITHKLINE INTELLECTUAL PROPERTY (NO.4) LIMITED, priority 2023, dated 2026).
Structures can show the parent of a compound that is named as a salt. Where two headings read alike, the source gives them in different places.

Key:
[1] = biological target: T1, recombinant full-length WRN protein (1-1432) (Homo sapiens, UniProt Q14191); experiment: WRN unwinding activity, fluorogenic 384-well assay (Example A); assay type: biochemical; conditions: WRN unwinding activity, Table 2; for IC50: 4 hr, read-out: 4 hr UNW pIC50 (converted)
T1 construct: recombinant full-length WRN protein (1-1432)
Method in brief: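 200 pM enzyme (2× stock) preincubated with compound 4 h at ambient temperature, then 200 μM ATP and 12 nM quenched TAMRA-labelled dsDNA (2× stocks) added for 60 min; EDTA-quenched. Buffer 25 mM Tris pH 8.0, 5 mM NaCl, 2 mM MgCl2. Fluorescence at 525/598 nm; pIC50 from four-parameter fit.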

[2] = test system: SW48 human colorectal cancer cells; experiment: Calculated free drug potency in SW48 cell assay, corrected with media free fraction (Example C); assay type: cell-based; conditions: for CC50: Homo sapiens, SW48, SW48 pCC50 corrected with measured free fraction in cell assay media; for Free Drug SW48 pCC50: SW48 pCC50 corrected with measured free fraction in cell assay media
Protocol: (§1) It was observed that the compounds of the present disclosure are bound to cell assay media to various degrees, which would affect the cellular potency analysis in Example B. To measure free drug potency, concentrations used in the cell assays were corrected with the measured free fraction determined in the cell assay media. Compounds were incubated in a rapid equilibrium dialysis (RED) at a nominal concentration of 1 μM, using a dialysis buffer of phosphate-buffered saline (PBS, 100 mM sodium phosphate+150 mM sodium chloride, pH 7.4). The test compound was spiked into the medium. Aliquots were added to the donor wells of a RED plate in triplicate, and blank PBS was added to each receiver well, at volumes recommended by the manufacturer. Plates were incubated with shaking at 200 rpm for 4 hours at 37° C. The resultant samples were analysed by LC-MS/MS using a specific and sensitive method. Results were reported as analyte:internal standard peak area ratios (PARs), and the percent unbound was calculated with the following equation:
(§2) [formula] where Cfinal=PAR in the T=240 minute sample; Cinitial=PAR in the T=0 minute sample. Cell culture media unbound percentage and calculated free drug potency of selected compounds along with their measured potency from Example B are shown in Table 3.

[3] = test system: SW48 human colorectal cancer cells (MSI-H cancer cells); experiment: SW48 cell viability, CellTiter-Glo, 120 hours (Example B); conditions: for CC50: Homo sapiens
[4] = Cell culture media unbound percentage and stability by rapid equilibrium dialysis (Example C); assay type: in vitro ADME; conditions: bovine, cell assay medium (RPMI-1640 with 10% fetal bovine serum), pH 7.4, rapid equilibrium dialysis, 4 hours at 37° C., read-out: Cell Culture Media Binding (% unbound)
Protocol: as §1
[formula] where D=the matrix dilution factor (D=1 for media); Apparent Fu=Crec/Cdon; Crec=PAR in receiver samples; Cdon=PAR in donor samples. Percent stability was calculated by:
as §2

[5] = SW48, 120 h, read-out: SW48 pCC50, SW48 cell viability, 120 hours incubation (converted), Table 2
[6] = SW48, read-out: SW48 pCC50, measured potency from Example B, as repeated in Table 3 (converted)
[7] = SW48 cell viability, 120 hours incubation, Table 2
[8] = measured potency from Example B, as repeated in Table 3

T1 sequence (Q14191 whole entry): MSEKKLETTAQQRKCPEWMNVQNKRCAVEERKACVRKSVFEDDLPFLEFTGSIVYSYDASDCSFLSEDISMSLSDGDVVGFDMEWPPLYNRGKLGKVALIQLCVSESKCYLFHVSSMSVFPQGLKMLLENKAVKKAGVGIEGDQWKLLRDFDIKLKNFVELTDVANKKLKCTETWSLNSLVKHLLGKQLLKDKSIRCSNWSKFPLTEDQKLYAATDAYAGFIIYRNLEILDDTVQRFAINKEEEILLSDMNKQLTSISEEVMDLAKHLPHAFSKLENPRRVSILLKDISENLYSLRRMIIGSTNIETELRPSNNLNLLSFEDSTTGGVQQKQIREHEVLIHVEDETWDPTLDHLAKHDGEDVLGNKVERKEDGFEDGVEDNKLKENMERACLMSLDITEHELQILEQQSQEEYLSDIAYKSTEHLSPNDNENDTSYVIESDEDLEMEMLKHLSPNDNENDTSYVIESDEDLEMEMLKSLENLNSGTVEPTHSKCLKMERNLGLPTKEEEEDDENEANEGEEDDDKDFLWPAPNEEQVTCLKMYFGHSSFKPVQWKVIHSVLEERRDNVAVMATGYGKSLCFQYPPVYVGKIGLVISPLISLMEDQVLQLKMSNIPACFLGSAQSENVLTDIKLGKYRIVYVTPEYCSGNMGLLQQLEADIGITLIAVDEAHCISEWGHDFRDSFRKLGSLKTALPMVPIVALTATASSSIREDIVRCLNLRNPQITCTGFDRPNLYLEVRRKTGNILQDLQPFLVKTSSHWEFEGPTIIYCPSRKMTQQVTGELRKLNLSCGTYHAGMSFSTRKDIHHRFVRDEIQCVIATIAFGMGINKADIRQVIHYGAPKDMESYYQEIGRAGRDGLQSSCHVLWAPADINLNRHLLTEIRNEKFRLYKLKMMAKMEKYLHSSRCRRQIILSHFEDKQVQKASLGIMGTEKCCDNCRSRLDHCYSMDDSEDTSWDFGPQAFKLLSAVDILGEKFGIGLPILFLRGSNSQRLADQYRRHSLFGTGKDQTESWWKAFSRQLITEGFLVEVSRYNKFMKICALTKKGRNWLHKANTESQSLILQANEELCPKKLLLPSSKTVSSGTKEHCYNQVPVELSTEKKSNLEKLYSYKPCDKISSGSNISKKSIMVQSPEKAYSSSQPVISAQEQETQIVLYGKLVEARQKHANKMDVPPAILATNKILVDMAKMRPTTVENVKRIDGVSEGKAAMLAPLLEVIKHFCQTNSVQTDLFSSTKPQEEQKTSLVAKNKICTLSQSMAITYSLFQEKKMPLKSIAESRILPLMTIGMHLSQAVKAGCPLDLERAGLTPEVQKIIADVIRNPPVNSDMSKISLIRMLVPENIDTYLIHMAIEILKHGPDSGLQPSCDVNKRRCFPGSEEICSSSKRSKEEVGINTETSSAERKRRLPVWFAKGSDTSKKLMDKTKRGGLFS

IC50 [1] [µM] | fraction unbound at 4 h, 1 µM [4] | SMILES | CC50 [2] [µM] | CC50 [3, 5] [µM] | CC50 [3, 6] [µM] | Free Drug SW48 pCC50 [2] | SW48 pCC50 [3, 7] | SW48 pCC50 [3, 8] | 4 hr UNW pIC50 [1]
0.00501 | 0.0147 | COc1cccc(S(=O)(=O)N(C)c2ccc([C@H]3CCC[C@@H](C(=O)Nc4ccc(C(F)(F)F)cc4F)[C@@H]3C(=O)O)cc2)c1 (racemic) [Example 82] | 0.0741 | 5.01 | 5.01 | – | – | – | –
0.00126 | 0.129 | CO[C@@H]1C[C@H](C(=O)Nc2ccc(C(F)(F)F)cc2F)[C@@H](C(=O)O)[C@H](c2ccc(N(C)S(=O)(=O)c3ccc4c(c3)nc(C)n4C)cc2)C1 (relative stereo) [Example 148, rel-(1R,2R,4R,6S)-2-((2-fluoro-4-(trifluoromethyl)phenyl)carbamoyl)-4-methoxy-6-(4-((N,1,2-trimethyl-1H-benzo[d]imidazole)-5-sulfonamido)phenyl)cyclohexane-1-carboxylic acid] | 0.0257 | 0.2 | 0.2 | – | – | – | –
0.00251 | 0.0991 | Cc1nc2cc(S(=O)(=O)N(C)c3ccc([C@H]4C[C@@H](OCC(F)F)C[C@@H](C(=O)Nc5ccc(C(F)(F)F)cc5F)[C@@H]4C(=O)O)cc3)ccc2n1C (relative stereo) [Example 159, rel-(1R,2R,4R,6S)-4-(2,2-difluoroethoxy)-2-((2-fluoro-4-(trifluoromethyl)phenyl)carbamoyl)-6-(4-((N,1,2-trimethyl-1H-benzo[d]imidazole)-5-sulfonamido)phenyl)cyclohexane-1-carboxylic acid] | 0.02 | 0.2 | 0.2 | – | – | – | –
0.00251 | 0.0481 | Cc1nc2cc(S(=O)(=O)N(C)c3ccc([C@H]4CCC[C@@H](C(=O)Nc5ccc(C(F)(F)F)cc5F)[C@@H]4C(=O)O)nc3)ccc2n1C (relative stereo) [Example 161, rel-(1R,2R,6S)-2-((2-fluoro-4-(trifluoromethyl)phenyl)carbamoyl)-6-(5-((N,1,2-trimethyl-1H-benzo[d]imidazole)-5-sulfonamido)pyridin-2-yl)cyclohexane-1-carboxylic acid] | 0.038 | 0.794 | 0.794 | – | – | – | –
0.00251 | 0.0585 | Cc1nc2cc(S(=O)(=O)N(C)c3ccc([C@@H]4CCC[C@H](C(=O)Nc5ccc(C(F)(F)F)cn5)[C@H]4C(=O)O)cc3)ccc2n1C (relative stereo) [Example 168, rel-(1R,2R,6S)-2-((5-(trifluoromethyl)pyridin-2-yl)carbamoyl)-6-(4-((N,1,2-trimethyl-1H-benzo[d]imidazole)-5-sulfonamido)phenyl)cyclohexane-1-carboxylic acid] | 0.0372 | 0.631 | 0.631 | – | – | – | –
0.00158 | 0.0138 | Cc1nc2cc(S(=O)(=O)N(C)c3ccc([C@@H]4CCC[C@H](COc5ccc(C(F)(F)F)cc5)[C@H]4C(=O)O)cc3)cc([C@@H]3CCCNC3)c2n1C (relative stereo) [Example 207, rel-(1R,2R,6S)-2-((4-(trifluoromethyl)phenoxy)methyl)-6-(4-((N,1,2-trimethyl-7-((R)-piperidin-3-yl)-1H-benzo[d]imidazole)-5-sulfonamido)phenyl)cyclohexane-1-carboxylic acid, hydrochloride] | 0.11 | 7.94 | 7.94 | – | – | – | –
– | 0.0623 | Cc1nc2cc(S(=O)(=O)N(C)c3ccc([C@H]4C[C@H](N5CCC(F)(F)CC5)C[C@@H](C(=O)Nc5ccc(C(F)(F)F)cc5F)[C@@H]4C(=O)O)cc3)ccc2n1C (relative stereo) [Example 342, rel-(1R,2R,4S,6S)-4-(4,4-difluoropiperidin-1-yl)-2-((2-fluoro-4-(trifluoromethyl)phenyl)carbamoyl)-6-(4-((N,1,2-trimethyl-1H-benzo[d]imidazole)-5-sulfonamido)phenyl)cyclohexane-1-carboxylic acid] | 0.389 | 6.31 | 6.31 | – | – | – | –
0.01 | – | Cc1nc2cc(S(=O)(=O)N(C)c3ccc([C@H]4C[C@@H](N5CCC[C@@H](F)C5)C[C@@H](C(=O)Nc5ccc(C(F)(F)F)cc5F)[C@@H]4C(=O)O)cc3)ccc2n1C (single isomer, unassigned) [Example 347, rel-(1R*,2R*,4S*,6S*)-2-((2-fluoro-4-(trifluoromethyl)phenyl)carbamoyl)-4-((R)-3-fluoropiperidin-1-yl)-6-(4-((N,1,2-trimethyl-1H-benzo[d]imidazole)-5-sulfonamido)phenyl)cyclohexane-1-carboxylic acid] | – | – | – | 6.17 | 5.2 | 5.2 | –
0.00251 | – | Cc1nc2cc(S(=O)(=O)N(C)c3ccc([C@H]4C[C@@H](N5CCC[C@@H](F)C5)C[C@@H](C(=O)Nc5ccc(C(F)(F)F)cc5F)[C@@H]4C(=O)O)cc3)ccc2n1C (single isomer, unassigned) [Example 376, rel-(1R*,2R*,4R*,6S*)-2-((2-fluoro-4-(trifluoromethyl)phenyl)carbamoyl)-4-((R)-3-fluoropiperidin-1-yl)-6-(4-((N,1,2-trimethyl-1H-benzo[d]imidazole)-5-sulfonamido)phenyl)cyclohexane-1-carboxylic acid] | – | – | – | 7.70 | 7.1 | 7.1 | –
0.00631 | – | Cc1nc2cc(S(=O)(=O)N(C)c3ccc([C@@H]4C[C@@H]5COC[C@@H]5[C@@H](C(=O)Nc5ccc(C(F)(F)F)cc5F)[C@@H]4C(=O)O)cc3)ccc2n1C (single isomer, unassigned) [Example 390] | – | – | – | 6.49 | 5.7 | 5.7 | –
– | – | Cc1nc2cc(S(=O)(=O)N(C)c3ccc([C@H]4C[C@@H](O[C@H]5CCOC5)C[C@@H](C(=O)Nc5ccc(C(F)(F)F)cc5F)[C@@H]4C(=O)O)cc3)ccc2n1C (stereo in doubt) [Example 324, (1R*,2R*,4R*,6S*)-2-((2-fluoro-4-(trifluoromethyl)phenyl)carbamoyl)-4-(((S)-tetrahydrofuran-3-yl)oxy)-6-(4-((N,1,2-trimethyl-1H-benzo[d]imidazole)-5-sulfonamido)phenyl)cyclohexane-1-carboxylic acid] | – | – | – | 5.60 | 5.1 | 5.1 | 7.2
– | – | CN(c1ccc([C@H]2CCC[C@@H](C(=O)Nc3ccc(C(F)(F)F)cc3F)[C@@H]2C(=O)O)cc1)S(=O)(=O)c1ccc(-c2ccn(C)n2)cc1 [Example 99, (1R,2R,6S)-2-((2-fluoro-4-(trifluoromethyl)phenyl)carbamoyl)-6-(4-((N-methyl-4-(1-methyl-1H-pyrazol-3-yl)phenyl)sulfonamido)phenyl)cyclohexane-1-carboxylic acid] | – | – | – | 7.77 | 6.1 | 6.1 | 8.6
0.0631 | – | CN(c1ccc([C@H]2CCC[C@@H](C(=O)Nc3ccc(C(F)(F)F)cc3F)[C@@H]2C(=O)O)cc1)S(=O)(=O)c1cc(I)c2occc2c1 [Example 117, (1R,2R,6S)-2-((2-fluoro-4-(trifluoromethyl)phenyl)carbamoyl)-6-(4-((7-iodo-N-methylbenzofuran)-5-sulfonamido)phenyl)cyclohexane-1-carboxylic acid] | – | 3.98 | – | 8.36 | – | 5.4 | –
